Earlier results on one molecule are cited in patent publication US20210260201A1, “EXTRACELLULAR VESICLES FOR THE TREATMENT AND PREVENTION OF INFECTIONS AND OTHER DISEASES” (PHYSIS BIOTECHNOLOGIES, LLC, priority 2020, published 2021).

Read-outs that look alike come from different tables or passages of the source.

Regarding `C=C(C)[C@@H]1CCC(C)=C[C@H]1c1c(O)cc(CCCCC)cc1O` [CBD, cannabidiol], the bioavailability by setting is: (intranasal) 34-46%; (oral (edibles)) 6-20%; (sublingual (tinctures)) 13-19%.
